Data: US20230331707A1, “PROGRAMMED CELL NECROSIS INHIBITOR, PREPARATION METHOD THEREFOR, AND USE THEREOF” (Shanghai Institute of Organic Chemistry, Chinese Academy of …, priority 2020, published 2023)

Experiments:
[1] = test system: phosphorylation of RIPK1 and phosphorylation of downstream protein MLKL; experiment: Programmed necrosis pathway signals by western blot in FADD-deficient Jurkat cells; assay type: cell-based, human; conditions: 1.6 nM
Description: In order to verify whether the compounds of the present invention can inhibit programmed cell necrosis by inhibiting the activity of RIPK1, and to detect the changes in the signal of the programmed necrosis pathway. FADD-deficient Jurkat or L929 cells treated with the compound of the present invention were used, and TNFα was added to induce programmed necrosis. Then the cells were collected and phosphorylation of RIPK1 and oligomerization of MLKL were detected using western blot.
Methods: FADD-deficient Jurkat cells or L929 cells were cultured in vitro. After growing to the logarithmic growth phase, the cells were collected, centrifuged at 1000 rpm for 5 min, the supernatant was discarded, and the cell concentration was adjusted to 1×10^6/mL. In the 12-well cell culture plate, each well was added with 1 ml of cells, and 0.2 μL of DMSO solution with a concentration of 50 mM drug or pure DMSO control, and pretreated for 1 h. 0.5 μL of TNF α (PBS solution) with a concentration of 100 μg/ml was added to each stimulated group. […] The BCA protein quantification kit was used to detect the protein content of each group, and PIPA lysis buffer was used to adjust the protein amount to make the final volume being 100 μL. […] The resulting sample was incubated with ECL luminescent solution and the luminescent signal was detected.

[2] = test system: MEFs cells expressing RIPK1 S161E mutant; experiment: TSZ-induced programmed necrosis in MEFs cells expressing RIPK1 S161E mutant; assay type: cell-based, mouse; conditions: 600 nM
Source text: The adopted biological test protocol was: the effect of compounds on programmed necrosis in MEFs cells (mouse embryonic fibroblasts) with RIPK1 S161E mutation.
In order to verify the inhibitory effect of the compound of the present invention on the highly activated RIPK1 kinase at the cellular level, MEFs cells stably expressing RIPK1 S161E (simulating the activation state of RIPK1 after phosphorylation) were selected, TNFα-SM164-zVAD (Caspase inhibitor for inhibiting apoptosis) (TSZ) was used in combination to induce programmed cell necrosis, and cell viability was calculated by detecting chemiluminescence values, thereby obtaining the biological activity of the compound in inhibiting programmed necrosis.
Methods: MEFs cells replenished by RIPK1: WT-RIPK1, S161A-RIPK1 and S161E-RIPK1 were replenished in RIPK1 stable knockout cells respectively. After stable expression and being cultured to logarithmic growth phase, the cells were collected, and centrifuged at 1000 rpm for 5 min. The supernatant was discarded. Cell concentration was adjusted to 5×10^4/mL, and cells were inoculated into 384-well plates with 40 μL per well. Cell culture medium diluted SM164 (100 nM), zVAD (50 μM) and compound, each […], were added to the corresponding wells. After pretreatment at 37° C. for 1 h, 5 μL of cell culture medium diluted TNF (50 ng/mL) was added to each well in the stimulated group and 5 μL of culture medium was added to the control group. […] The unstimulated DMSO control wells (Ctrl) were taken as 100% cell viability. EC50 values of the compounds were calculated using Prism Graphpad statistical software.

[3] = test system: FADD−/− Jurkat cells; experiment: Inhibition of TNF-induced programmed necrosis of FADD deficient Jurkat cells (Cell Titer-Glo viability); assay type: cell-based; conditions: at 1000-fold effective inhibitory concentration (1 μM); FADD-deficient Jurkat cells or L929 cells

## Cn1ncc(C(=O)NCc2ccc(-n3cnc4c(N)ncnc43)cc2)c1Cc1ccccc1 [QY-10-40]
[1]
  inhibition of phosphorylation of RIPK1 and of downstream protein MLKL: effectively inhibit
[2]
  inhibition of programmed necrosis: can significantly inhibit occurrence of programmed necrosis
[3]
  cytotoxicity: does not exhibit any cytotoxicity
